# Assay results reported in publication PMC9105233, “The Nitrogen Atom of Vitamin B6 Is Essential for the Catalysis of Radical Aminomutases” (International Journal of Molecular Sciences, 2022).
# Target: T1, lysine 5,6-aminomutase (5,6-LAM) (Acetoanaerobium sticklandii, UniProt E3PRJ4+E3PRJ5)
# T1 construct: gene kamD
# Conditions: dAdoCbl, NH4-EPPS pH 8.5, reaction 4 min, PLP analogue replacing PLP
# T1 sequence (E3PRJ5 whole entry): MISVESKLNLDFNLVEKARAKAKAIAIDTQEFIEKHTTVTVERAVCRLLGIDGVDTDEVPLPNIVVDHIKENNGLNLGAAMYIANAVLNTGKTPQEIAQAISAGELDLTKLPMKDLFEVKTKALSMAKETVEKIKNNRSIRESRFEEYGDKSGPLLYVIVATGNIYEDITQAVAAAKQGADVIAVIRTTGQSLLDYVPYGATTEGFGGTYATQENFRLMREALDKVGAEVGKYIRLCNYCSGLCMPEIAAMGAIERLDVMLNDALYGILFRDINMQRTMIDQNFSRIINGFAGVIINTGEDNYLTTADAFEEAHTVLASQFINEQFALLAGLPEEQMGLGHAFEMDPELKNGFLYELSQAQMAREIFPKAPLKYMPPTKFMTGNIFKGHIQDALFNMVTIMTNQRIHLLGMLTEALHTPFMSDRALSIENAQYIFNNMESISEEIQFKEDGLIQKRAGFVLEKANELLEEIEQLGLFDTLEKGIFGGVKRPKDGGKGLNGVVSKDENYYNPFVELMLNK
# T1 sequence (E3PRJ4 whole entry): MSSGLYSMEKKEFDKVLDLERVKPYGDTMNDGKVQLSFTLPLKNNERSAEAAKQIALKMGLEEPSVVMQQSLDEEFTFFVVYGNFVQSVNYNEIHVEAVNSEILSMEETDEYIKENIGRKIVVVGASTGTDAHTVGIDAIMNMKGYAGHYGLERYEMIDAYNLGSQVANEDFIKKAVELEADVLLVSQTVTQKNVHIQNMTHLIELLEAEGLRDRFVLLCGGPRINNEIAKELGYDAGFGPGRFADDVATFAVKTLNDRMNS
structure (smiles),measurement,value
Cc1ccc(COP(=O)(O)O)c(C=O)c1O [dAPLP],EPR of substrate-related radical with 4-thia-L-lysine,this spectrum obtained with dAPLP can be attributed to the corresponding S^•
